Experimental data published in ChEMBL document CHEMBL2074052, “Human organic anion transporters and human organic cation transporters mediate renal antiviral transport” (J Pharmacol Exp Ther, 2002).

Key:
Format in all cases: functional, cell-based
[1] = target: T1, OCT1 (Solute carrier family 22 member 1) (Homo sapiens, UniProt O15245); test: TP_TRANSPORTER: inhibition of TEA uptake (TEA: 5 uM, ACV: 1000 uM) in OCT1-expressing S2 cells; design: scale not given: the % may be the effect or the level left; conditions: probe TEA, read-out: Activity
T1 sequence (O15245 whole entry): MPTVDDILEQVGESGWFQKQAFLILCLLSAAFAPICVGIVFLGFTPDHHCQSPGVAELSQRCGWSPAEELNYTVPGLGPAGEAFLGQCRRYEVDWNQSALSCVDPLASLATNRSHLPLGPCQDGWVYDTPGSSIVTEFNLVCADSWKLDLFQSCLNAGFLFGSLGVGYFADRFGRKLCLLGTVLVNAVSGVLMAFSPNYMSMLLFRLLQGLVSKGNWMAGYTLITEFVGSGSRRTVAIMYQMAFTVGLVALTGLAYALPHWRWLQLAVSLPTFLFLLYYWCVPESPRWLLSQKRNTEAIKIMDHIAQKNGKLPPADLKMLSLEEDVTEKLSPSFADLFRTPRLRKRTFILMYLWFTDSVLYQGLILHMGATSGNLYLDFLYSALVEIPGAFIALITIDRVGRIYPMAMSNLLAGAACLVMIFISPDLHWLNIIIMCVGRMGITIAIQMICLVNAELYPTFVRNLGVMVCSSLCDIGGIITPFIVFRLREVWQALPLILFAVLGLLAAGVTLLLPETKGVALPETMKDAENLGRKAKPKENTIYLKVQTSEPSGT

[2] = target: T2, OAT1 (Solute carrier family 22 member 6) (Homo sapiens, UniProt Q4U2R8); test: TP_TRANSPORTER: inhibition of PAH uptake (PAH: 5 uM, ACV: 1000 uM) in OAT1-expressing S2 cells; design: scale not given: the % may be the effect or the level left; conditions: probe PAH, read-out: Activity
T2 sequence (Q4U2R8 whole entry): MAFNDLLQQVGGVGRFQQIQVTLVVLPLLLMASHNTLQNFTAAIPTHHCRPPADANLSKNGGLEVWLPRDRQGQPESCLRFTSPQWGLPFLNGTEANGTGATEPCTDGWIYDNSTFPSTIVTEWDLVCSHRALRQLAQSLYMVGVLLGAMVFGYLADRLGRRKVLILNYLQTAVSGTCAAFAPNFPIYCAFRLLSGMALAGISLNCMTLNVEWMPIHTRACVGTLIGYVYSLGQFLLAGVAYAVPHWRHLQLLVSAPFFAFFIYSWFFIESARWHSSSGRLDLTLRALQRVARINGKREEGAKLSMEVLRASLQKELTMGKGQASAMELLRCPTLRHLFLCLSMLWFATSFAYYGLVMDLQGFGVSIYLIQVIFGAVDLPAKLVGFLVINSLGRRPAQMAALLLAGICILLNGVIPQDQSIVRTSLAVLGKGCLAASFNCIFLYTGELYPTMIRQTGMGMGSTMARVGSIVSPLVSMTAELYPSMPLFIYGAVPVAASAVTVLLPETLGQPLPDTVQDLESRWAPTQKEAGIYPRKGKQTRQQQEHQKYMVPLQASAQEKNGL

[3] = target: T3, OAT3 (Organic anion transporter 3) (Homo sapiens, UniProt Q8TCC7); test: TP_TRANSPORTER: inhibition of Estrone sulfate uptake (E1S: 0.05 uM, ACV: 1000 uM) in OAT3-expressing S2 cells; design: scale not given: the % may be the effect or the level left; conditions: mouse, probe Estrone sulfate (E1S), read-out: Activity
T3 sequence (Q8TCC7 whole entry): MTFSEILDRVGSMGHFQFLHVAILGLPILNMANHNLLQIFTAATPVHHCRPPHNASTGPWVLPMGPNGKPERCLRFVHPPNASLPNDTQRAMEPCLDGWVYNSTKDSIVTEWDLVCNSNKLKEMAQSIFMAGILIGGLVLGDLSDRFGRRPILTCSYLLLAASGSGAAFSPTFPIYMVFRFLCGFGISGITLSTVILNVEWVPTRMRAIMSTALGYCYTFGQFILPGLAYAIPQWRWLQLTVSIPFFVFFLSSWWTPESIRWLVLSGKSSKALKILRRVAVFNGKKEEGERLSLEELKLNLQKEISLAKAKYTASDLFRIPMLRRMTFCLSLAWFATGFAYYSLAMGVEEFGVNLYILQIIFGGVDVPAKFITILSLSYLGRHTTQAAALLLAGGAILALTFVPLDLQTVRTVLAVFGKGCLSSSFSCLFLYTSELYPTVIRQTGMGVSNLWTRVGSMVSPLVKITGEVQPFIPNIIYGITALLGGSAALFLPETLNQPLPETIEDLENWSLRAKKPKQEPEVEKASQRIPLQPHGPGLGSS

[4] = target: T4, OAT2 (Solute carrier family 22 member 7) (Homo sapiens, UniProt Q9Y694); test: TP_TRANSPORTER: inhibition of PGF2alpha uptake (PGF2alpha: 0.005 uM, GCV: 1000 uM) in OAT2-expressing S2 cells; design: scale not given: the % may be the effect or the level left; conditions: probe PGF2alpha, read-out: Activity
T4 sequence (Q9Y694 whole entry): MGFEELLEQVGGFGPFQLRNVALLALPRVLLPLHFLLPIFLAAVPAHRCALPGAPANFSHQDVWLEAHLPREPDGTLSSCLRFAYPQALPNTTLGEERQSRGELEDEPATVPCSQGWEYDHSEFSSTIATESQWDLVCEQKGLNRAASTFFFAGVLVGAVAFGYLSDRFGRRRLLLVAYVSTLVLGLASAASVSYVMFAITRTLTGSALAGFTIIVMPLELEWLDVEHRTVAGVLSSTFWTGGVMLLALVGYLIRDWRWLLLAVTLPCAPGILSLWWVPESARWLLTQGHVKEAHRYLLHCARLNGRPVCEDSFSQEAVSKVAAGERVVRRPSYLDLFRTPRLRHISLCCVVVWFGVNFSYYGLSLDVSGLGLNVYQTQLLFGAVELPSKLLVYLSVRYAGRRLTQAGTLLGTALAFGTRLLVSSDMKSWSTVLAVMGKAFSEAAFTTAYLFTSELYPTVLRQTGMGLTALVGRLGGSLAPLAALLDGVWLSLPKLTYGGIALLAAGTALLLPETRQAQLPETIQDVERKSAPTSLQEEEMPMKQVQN

[5] = target: T2, OAT1 (Solute carrier family 22 member 6); test: TP_TRANSPORTER: inhibition of PAH uptake (PAH: 5 uM, GCV: 1000 uM) in OAT1-expressing S2 cells; design: scale not given: the % may be the effect or the level left; conditions: mouse, probe PAH, read-out: Activity
[6] = target: T3, OAT3 (Organic anion transporter 3); test: TP_TRANSPORTER: inhibition of E1S uptake (E1S: 0.05 uM, GCV: 1000 uM) in OAT3-expressing S2 cells; design: scale not given: the % may be the effect or the level left; conditions: mouse, probe E1S, read-out: Activity
[7] = target: T1, OCT1 (Solute carrier family 22 member 1); test: TP_TRANSPORTER: inhibition of TEA uptake (TEA: 5 uM, GCV: 1000 uM) in OCT1-expressing S2 cells; design: scale not given: the % may be the effect or the level left; conditions: probe TEA, read-out: Activity
[8] = target: T4, OAT2 (Solute carrier family 22 member 7); test: TP_TRANSPORTER: inhibition of PGF2alpha uptake (PGF2alpha: 0.005 uM, AZT: 1000 uM) in OAT2-expressing S2 cells; design: scale not given: the % may be the effect or the level left; conditions: probe PGF2alpha, read-out: Activity
[9] = target: T4, OAT2 (Solute carrier family 22 member 7); test: TP_TRANSPORTER: uptake in OAT2-expressing S2 cells
[10] = target: T5, OAT4 (Solute carrier family 22 member 11) (Homo sapiens, UniProt Q9NSA0); test: TP_TRANSPORTER: inhibition of E1S uptake (E1S: 0.05 uM, AZT: 1000 uM) in OAT4-expressing S2 cells; design: scale not given: the % may be the effect or the level left; conditions: mouse, probe E1S, read-out: Activity
T5 sequence (Q9NSA0 whole entry): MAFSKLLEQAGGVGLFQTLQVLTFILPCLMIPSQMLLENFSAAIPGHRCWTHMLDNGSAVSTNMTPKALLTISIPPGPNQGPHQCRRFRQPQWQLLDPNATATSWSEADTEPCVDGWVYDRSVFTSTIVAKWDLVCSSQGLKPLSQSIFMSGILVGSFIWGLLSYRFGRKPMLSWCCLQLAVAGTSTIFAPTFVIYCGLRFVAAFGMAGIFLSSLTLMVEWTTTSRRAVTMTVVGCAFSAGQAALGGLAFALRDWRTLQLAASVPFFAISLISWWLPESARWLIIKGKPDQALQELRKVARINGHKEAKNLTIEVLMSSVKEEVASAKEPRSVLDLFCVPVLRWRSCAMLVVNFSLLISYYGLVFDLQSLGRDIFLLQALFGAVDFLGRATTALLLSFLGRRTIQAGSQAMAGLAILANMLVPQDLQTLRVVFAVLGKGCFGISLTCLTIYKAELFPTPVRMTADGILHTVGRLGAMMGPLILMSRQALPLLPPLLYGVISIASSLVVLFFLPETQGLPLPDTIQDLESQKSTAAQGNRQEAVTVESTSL

[11] = target: T3, OAT3 (Organic anion transporter 3); test: TP_TRANSPORTER: uptake in OAT3-expressing S2 cells; conditions: mouse
[12] = target: T5, OAT4 (Solute carrier family 22 member 11); test: TP_TRANSPORTER: uptake in OAT4-expressing S2 cells
[13] = target: T2, OAT1 (Solute carrier family 22 member 6); test: TP_TRANSPORTER: uptake in OAT1-expressing S2 cells
[14] = target: T2, OAT1 (Solute carrier family 22 member 6); test: TP_TRANSPORTER: inhibition of PAH uptake (PAH: 5 uM, AZT: 1000 uM) in OAT1-expressing S2 cells; design: scale not given: the % may be the effect or the level left; conditions: mouse, probe PAH, read-out: Activity
[15] = target: T3, OAT3 (Organic anion transporter 3); test: TP_TRANSPORTER: inhibition of E1S uptake (E1S: 0.05 uM, AZT: 1000 uM) in OAT3-expressing S2 cells; design: scale not given: the % may be the effect or the level left; conditions: mouse, probe E1S, read-out: Activity

Nc1nc2c(ncn2COCCO)c(=O)[nH]1 [ACYCLOVIR]
activity at 1000 µM [1]: 88.4% | activity at 1000 µM [2]: 67% | activity at 1000 µM [3]: 64.3%

Nc1nc(O)c2ncn(COC(CO)CO)c2n1 [GANCICLOVIR]
activity at 1000 µM [4]: 63.3% | activity at 1000 µM [5]: 87.1% | activity at 1000 µM [6]: 74.3% | activity at 1000 µM [7]: 88.3%

Cc1cn([C@H]2C[C@H](N=[N+]=[N-])[C@@H](CO)O2)c(=O)[nH]c1=O [ZIDOVUDINE]
activity at 1000 µM [8]: 76.7% | Km [9]: 26.8 µM | activity at 1000 µM [10]: 84.2% | Km [11]: 145 µM | Km [12]: 152 µM | Km [13]: 45.9 µM | activity at 1000 µM [14]: 30.7% | activity at 1000 µM [15]: 70%
